Patent US9963476B2, “Antioxidant compound having anti atherosclerotic effect and preparation thereof” (Council of Scientific and Industrial Research, priority 2015, dated 2018)

Legend:
[1] = test system: Ang-II-induced atherosclerosis in ApoE−/− mice; assay: Serum lipid profile of Ang-II treated ApoE−/− mice; assay type: in vivo
Description: (§2) Experiments were conducted in 2-month-old male apolipoprotein E knockout (ApoE^−/−) mice according to the guidelines formulated for care and use of animals in scientific research (ICMR, New Delhi, India) at a CPCSEA (Committee for the Purpose of Control and Supervision of Experiments on Animals) registered animal facility. […] Animals were randomly divided into 3 groups each n=7:1) control 2) Ang-II treatment and 3) Mito-Esculetin+Ang-II treatment. Ang-II and Mito-Esculetin treatment groups received Ang-II (sigma) at a dose of 1.44 mg/kg/day for 6 weeks through sub-cutaneous route where as control group received normal saline. Mito-Esculetin treatment group received the compound at a dose of 0.5 mg/kg/day in normal drinking water. All animals were fed on normal chow throughout the study. After 6 weeks, all groups of animals were sacrificed as per standard protocols for euthanasia.
(§3) We further analyzed the vascular remodelling employing histological stains in tissue sections of thoracic aortas. […] In tune with this, we have also measured Mac-3 levels by flow cytometry.

Apo E−/− mice aorta = assay: Mito-Esc quantified by ESI-MS in cytosolic and mitochondrial fractions of ApoE−/− mice aortic tissue; assay type: in vivo; settings: 0.5 mg/kg/day in drinking water
Description: After the treatment, cells were washed thrice with PBS. Similarly Mito-Esculetin+ Ang-II treatment group, Ang-II alone treatment group and control Apo E^-/- mice aortic tissue was taken. The isolation of mitochondrial and cytosolic extracts was carried out using a commercially available Proteo Extract Cytosol/Mitochondria Fractionation Kit (Cat. no. QIA88-Merck, USA) according to manufacturer's instructions. Initially, mitochondrial and cytosolic fractions were separated using a commercially available kit as mentioned elsewhere. Mito-Esc was quantified in the mitochondrial and cytosolic fractions obtained from HAEC and aorta of ApoE^-/- mice of different treatment groups as mentioned in Animal Experiments section (Table-1). Electrospray ionization (ESI)-MS. ESI-MS (positive mode) measurements were performed using a quadrupole time-of-flight mass spectrometer (QSTAR XL, Applied Biosystems/MDS Sciex, Foster City, Calif., USA). The data acquisition was under the control of Analyst QS software (Applied Biosystems). For the CID (collision-induced dissociation) experiments, the precursor ions were selected using the quadrupole analyzer and the product ions were analyzed using the TOF analyzer.

HAEC aging / senescence = assay: Senescence-associated β-galactosidase staining; assay type: cell-based, human
Description: Low and high passage number (which reflects young and aged) endothelial cells (HAEC) cells were treated with various concentrations of H2O2 (50-500 μM)) for 8 h. Cells were washed in PBS, fixed for […] (room temperature) in 2% formaldehyde/0.2% glutaraldehyde, washed, and incubated at 37° C. with fresh senescence associated β-Gal (SA-,β-Gal) stain solution: 1 mg of 5-bromo-4-chloro-3-indolyl β-D-galactoside (X-Gal) per ml (stock=20 mg of dimethylformamide per ml)/40 mM citric acid/sodium phosphate, pH 6.0; 5 mM potassium ferrocyanide/5 mM potassium ferricyanide/150 mM NaCl/2 mM MgCl2. Staining was visualized after 24 h using a phase contrast microscope.
To study if Mti-Esc influences vascular aging; we have studied its effect on human aortic endothelial cell (HAEC) aging. For this, we used HAEC of different passages (representing different age) from P6 (young age) to P16 (old age). Also we have grown HAEC with Mito-Esc (2.5 μM) for six generations (six passages) to understand its chronic effects in regulating endothelial cell aging phenomenon.

[2] = test system: TNF-α, IFN-γ, MCP-1, Mac-3; assay: Serum proinflammatory cytokines and Mac-3 levels in ApoE−/− mice
Description: as §2, §3

[3] = test system: eNOS phosphorylation (Ser-1177); assay: Western blot of eNOS phosphorylation in HAEC; assay type: cell-based, human; settings: 8 h
Description: (§1) To gain mechanistic insight on Mito-Esc-mediated protection of endothelial cells from oxidant-induced endothelial cell death, initially we hypothesized that Mito-Esc may augment intracellular nitric oxide generation. To study this, HAEC were treated with both Mito-Esc and esculetin in the presence or absence of H2O2 for a period of 4 h and nitric oxide (NO) levels were monitored by DAF-2 derived green fluorescence. Previously, it has been shown that DAF-2 forms a fluorescent triazole-type product in the presence of an oxidant derived from nitric oxide and oxygen interaction (Proc. Natl. Acad. Sci. USA 99: 11127-11132; 2002.; Am. J. Physiol. Regul. Integ. Comp. Physiol. 286:R344-R431; 2004). […] Next, we investigated the possible role of endothelial nitric oxide synthase (eNOS) in mediating the Mito-Esc induced NO generation in HAEC. For this, endothelial cells were treated with various concentrations of Mito-Esc (1-5 μM) for a period of 8 h. […] To further substantiate the results of DAF fluorescence, eNOS phosphorylation was measured in HAEC incubated with either with H2O2 or Ang-II for 8 h in cells pretreated with Mito-Esc or native esculetin. It was observed that both H2O2 and Ang-II caused a reduction in Phospho eNOS (Ser-1177) levels (FIG. 4D). Ang-II treatment imposed a drastic inhibition of phospho-eNOS levels when compared to H2O2 treatment in endothelial cells (FIG. 4D).

[4] = test system: nitric oxide generation in HAEC; assay: Intracellular nitric oxide levels by DAF-2DA fluorescence; assay type: cell-based, human; settings: 2.5 μM, 4 h
Description: Intracellular nitric oxide levels were monitored by using the Diaminofluorescein-diacetate (DAF-2DA) fluorescence probe. After the treatments, cells were washed with DPBS and incubated in fresh culture medium without fetal bovine serum (FBS). DAF-2DA was added at a final concentration of 5 μM, and the cells were incubated for 30 minutes. The cells were washed twice with DPBS and maintained in culture medium. Fluorescence was monitored by using Olympus fluorescence microscope with FITC filter (λex=488 nm and […]). Fluorescence intensity was calculated by Image-Pro plus7.0 software.
as §1

[5] = serum, ApoE−/− mice, 45 days, Ang-II alone or Ang-II + Mito-Esc

**Q.** Which “Ang-II mediated increase in LDL, VLDL, triglycerides and total cholesterol” value ([1]; ApoE−/− mice serum) does the source give for `O=c1cc(CCCCCCCC[P+](c2ccccc2)(c2ccccc2)c2ccccc2)c2cc(O)c(O)cc2o1.[Br-]` [Mito-Esc] here?
**A.** significantly reduced

**Q.** And the “serum HDL levels” value ([1]; ApoE−/− mice serum)?
**A.** significant rise

**Q.** What about the HDL [1, 5] of the same compound?
**A.** 45.53 ± 0.4 mg/dL

**Q.** And the LDL [1, 5]?
**A.** 218.40 ± 20.9 mg/dL

**Q.** What about the “Total Cholesterol” value [1, 5] of the same compound?
**A.** 414.85 ± 8.2 mg/dL

**Q.** What about the Triglycerides [1, 5] of the same compound?
**A.** 150.74 ± 3.8 mg/dL

**Q.** What about the VLDL [1, 5] of the same compound?
**A.** 30.15 ± 0.4 mg/dL

**Q.** What about the Mitochondrial fraction (Apo E−/− mice aorta) of the same compound?
**A.** 2547 ± 286 nmol/mg protein

**Q.** What about the “endothelial cell aging (senescence-associated β-gal staining)” value (HAEC aging / senescence; HAEC, 2.5 μM chronic treatment for six passages) of the same compound?
**A.** greatly attenuated

**Q.** And the H2O2-induced premature senescence (HAEC aging / senescence; P6 (young age) HAEC, H2O2)?
**A.** significantly inhibited

**Q.** And the “Ang-II-induced proinflammatory cytokines (TNF-α, IFN-γ, MCP-1) production” value ([2]; ApoE−/− mice serum)?
**A.** significant inhibition

**Q.** And the “Mac-3 levels by flow cytometry” value ([2]; ApoE−/− mice, by 30 days of treatment)?
**A.** inhibition of Mac3 levels

**Q.** What about the “phosphorylation of eNOS at Ser-1177” value ([3]; 1-5 μM) of the same compound?
**A.** dose-dependently increased

**Q.** What about the “oxidant-mediated decrease in eNOS-phosphorylation” value ([3]; H2O2 or Ang-II, pretreated cells) of the same compound?
**A.** caused cells resistant to oxidant-mediated decrease

**Q.** And the “DAF-2 fluorescence (NO production), compound alone” value [4]?
**A.** greatly enhanced

**Q.** And the “H2O2-mediated depletion of NO levels” value ([4]; H2O2 500 μM)?
**A.** significantly restored
